US9511058B2, “Methods for using carboxamide, sulfonamide and amine compounds” (Rigel Pharmaceuticals, Inc., priority 2010, dated 2016)

target: AMPK; assay: AMPK activation, enzyme-linked immunosorbent assay; format: biochemical; conditions: compounds of Table 1 (Table 6)

Compared with `O=C(NC1CCN(Cc2ccncc2)CC1)c1ccnc(OC2CCN(c3ccc(C(F)(F)F)cc3)CC2)c1` [1-20, N-(1-(pyridin-4-ylmethyl)piperidin-4-yl)-2-(1-(4-(trifluoromethyl)phenyl)piperidin-4-yloxy)isonicotinamide], `O=C(N[C@@H]1CCN(Cc2ccncc2)C1)c1ccc(OC2CCN(c3ccc(C(F)(F)F)cc3)CC2)cn1` [1-25, (R)-N-(1-(pyridin-4-ylmethyl)pyrrolidin-3-yl)-5-(1-(4-(trifluoromethyl)phenyl)piperidin-4-yloxy)picolinamide] is lower in EC50: 0.5 to 1 µM for the first, 0.1 to 0.5 µM for the second.

`O=C(NC1CCN(Cc2cccnc2)CC1)c1cc2ccc(OC3CCN(c4ccc(C(F)(F)F)cc4)CC3)cc2o1` [1-96, N-(1-(pyridin-3-ylmethyl)piperidin-4-yl)-6-(1-(4-(trifluoromethyl)phenyl)piperidin-4-yloxy)benzofuran-2-carboxamide] and `O=C(NC1CCN(Cc2ccc(F)cc2)CC1)c1cc2ccc(OC3CCN(c4ccc(OC(F)(F)F)cc4)CC3)cc2o1` [1-94, N-(1-(4-fluorobenzyl)piperidin-4-yl)-6-(1-(4-(trifluoromethoxy)phenyl)piperidin-4-yloxy)benzofuran-2-carboxamide] cannot be ordered by EC50: < 0.1 µM for the first, < 0.1 µM for the second.

First: CC(C)(C)OC(=O)N1CC[C@H](NC(=O)c2cc3cc(OC4CCN(Cc5ccc(Cl)cc5)CC4)ccc3o2)C1 [1-127, (S)-tert-butyl 3-(5-(1-(4-chlorobenzyl)piperidin-4-yloxy)benzofuran-2-carboxamido)pyrrolidine-1-carboxylate]
Second: O=C(NC1CCN(Cc2ccncc2)CC1)c1cc2cc(OC3CCN(Cc4ccc(Cl)cc4)CC3)ccc2o1 [1-77, 5-(1-(4-chlorobenzyl)piperidin-4-yloxy)-N-(1-(pyridin-4-ylmethyl)piperidin-4-yl)benzofuran-2-carboxamide]
The EC50 of the first is higher: 1 to 5 µM for the first, 0.1 to 0.5 µM for the second. The second is the more potent here.

`FC(F)(F)c1ccc(N2CCC(Oc3ccc4c(c3)CCC4NC3CCNCC3)CC2)cc1` (stereo not shown) [1-157, N-(5-(1-(4-(trifluoromethyl)phenyl)piperidin-4-yloxy)-2,3-dihydro-1H-inden-1-yl)piperidin-4-amine] and `O=C(NC1CCNCC1)c1ccnc(OC2CCN(c3ccc(C(F)(F)F)cc3)CC2)c1` [1-19, N-(piperidin-4-yl)-2-(1-(4-(trifluoromethyl)phenyl)piperidin-4-yloxy)isonicotinamide] fall in the same range of EC50: 1 to 5 µM for the first, 1 to 5 µM for the second.

First: O=S(=O)(NC1CCN(Cc2ccc(C(F)(F)F)cc2)CC1)c1ccc(OC2CCN(c3ccc(C(F)(F)F)cc3)CC2)nc1 [1-58, N-(1-(4-(trifluoromethyl)benzyl)piperidin-4-yl)-6-(1-(4-(trifluoromethyl)phenyl)piperidin-4-yloxy)pyridine-3-sulfonamide]
Second: O=C(NC1CCN(Cc2ccc(F)cc2)CC1)c1cc(OC2CCN(c3ccc(C(F)(F)F)cc3)CC2)ccn1 [1-29, N-(1-(4-fluorobenzyl)piperidin-4-yl)-4-(1-(4-(trifluoromethyl)phenyl)piperidin-4-yloxy)picolinamide]
The EC50 of the first is lower: < 0.1 µM for the first, 0.1 to 0.5 µM for the second.

First: O=C(NC1CCN(Cc2ccccn2)CC1)c1sc2cc(OC3CCN(c4ccc(C(F)(F)F)cc4)CC3)ccc2c1Cl [1-153, 3-chloro-N-(1-(pyridin-2-ylmethyl)piperidin-4-yl)-6-(1-(4-(trifluoromethyl)phenyl)piperidin-4-yloxy)benzo[b]thiophene-2-carboxamide]
Second: O=C(N[C@@H]1CCNC1)c1cc2cc(OC3CCN(c4ccc(C(F)(F)F)cc4)CC3)ccc2o1 [1-121, (R)-N-(pyrrolidin-3-yl)-5-(1-(4-(trifluoromethyl)phenyl)piperidin-4-yloxy)benzofuran-2-carboxamide]
The EC50 of the first is lower: 0.1 to 0.5 µM for the first, > 10 µM for the second.

Work on `N#Cc1ccc(CN2CCC(Oc3ccc4oc(C(=O)NC5CCN(Cc6ccncc6)CC5)cc4c3)CC2)cc1` [1-79, 5-(1-(4-cyanobenzyl)piperidin-4-yloxy)-N-(1-(pyridin-4-ylmethyl)piperidin-4-yl)benzofuran-2-carboxamide] yielded an EC50 of 0.1 to 0.5 µM.

same assay, conditions: compounds of Table 2 (Table 7)

First: O=C(NC1CCN(Cc2cccnc2)CC1)c1ccc2[nH]c3c(c2c1)CN(Cc1ccc(F)cc1)CC3 [2-8, 2-(4-fluorobenzyl)-N-(1-(pyridin-3-ylmethyl)piperidin-4-yl)-2,3,4,5-tetrahydro-1H-pyrido[4,3-b]indole-8-carboxamide]
Second: NC(=O)c1ccc(CN2CCc3[nH]c4ccc(C(=O)NC5CCN(Cc6ccc(F)cc6)CC5)cc4c3C2)cc1 [2-48, 2-(4-carbamoylbenzyl)-N-(1-(4-fluorobenzyl)piperidin-4-yl)-2,3,4,5-tetrahydro-1H-pyrido [4,3-b]indole-8-carboxamide]
The EC50 of the first is lower: 5 to 10 µM for the first, > 100 µM for the second.

First: O=C(NC1CCN(Cc2ccncc2)CC1)c1ccc2[nH]c3c(c2c1)CN(Cc1ccc(C(F)(F)F)cc1)CC3 [2-50, N-(1-(pyridin-4-ylmethyl)piperidin-4-yl)-2-(4-(trifluoromethyl)benzyl)-2,3,4,5-tetrahydro-1H-pyrido[4,3-b]indole-8-carboxamide]
Second: O=C(NC1CCN(C(=O)c2ccncc2)CC1)c1ccc2[nH]c3c(c2c1)CN(Cc1ccc(C(F)(F)F)cc1)CC3 [2-51, N-(1-isonicotinoyl-piperidin-4-yl)-2-(4-(trifluoromethyl)benzyl)-2,3,4,5-tetrahydro-1H-pyrido [4,3-b]indole-8-carboxamide]
The EC50 of the first is lower: < 0.5 µM for the first, 0.5 to 1 µM for the second. The first is the more potent here.

`N#Cc1ccc(S(=O)(=O)N2CCC(NC(=O)c3ccc4[nH]c5c(c4c3)CN(Cc3ccc(C(F)(F)F)cc3)CC5)CC2)cc1` [2-21, N-(1-(4-cyanophenyl-sulfonyl)piperidin-4-yl)-2-(4-(trifluoro-methyl)benzyl)-2,3,4,5-tetrahydro-1H-pyrido[4,3-b]indole-8-carboxamide] and `Cn1c2c(c3cc(C(=O)NC4CCN(Cc5ccc(C(F)(F)F)cc5)CC4)ccc31)CN(Cc1ccc(C(F)(F)F)cc1)CC2` [2-17, N-(1-(4-trifluoro-methylbenzyl)piperidin-4-yl)-5-methyl-2-(4-(trifluoromethyl)benzyl)-2,3,4,5-tetrahydro-1H-pyrido[4,3-b]indole-8-carboxamide] fall in the same range of EC50: 0.5 to 1 µM for the first, 0.5 to 1 µM for the second.

`CC(=O)n1c2c(c3cc(C(=O)NC4CCN(Cc5cccnc5)CC4)ccc31)CN(Cc1ccc(C(F)(F)F)cc1)CC2` [2-20, 5-acetyl-N-(1-(pyridin-3-ylmethyl)piperidin-4-yl)-2-(4-(trifluoromethyl)benzyl)-2,3,4,5-tetrahydro-1H-pyrido[4,3-b]indole-8-carboxamide] showed an EC50 of 1 to 5 µM.

same assay, conditions: compounds of Table 3 (Table 8)

`N#Cc1ccc(CN2CCC(NC(=O)c3ccc(C(=O)NC4CCN(Cc5ccc(C(F)(F)F)cc5)CC4)cc3)CC2)cc1` [3-31, N^1-(1-(4-cyanobenzyl)piperidin-4-yl)-N^4-(1-(4-(trifluoromethyl)benzyl)piperidin-4-yl)terephthalamide] and `N#Cc1ccc(CN2CCC(NC(=O)c3cnc(OC4CCN(c5ccc(C(F)(F)F)cc5)CC4)s3)CC2)cc1` [3-23, N-(1-(4-cyanobenzyl)piperidin-4-yl)-2-(1-(4-(trifluoromethyl)phenyl)piperidin-4-yloxy)thiazole-5-carboxamide] cannot be ordered by EC50: < 0.1 µM for the first, < 0.1 µM for the second.

In the case of `CC(C)(C)OC(=O)N1CCC(NC(=O)c2nc3ccc(OC4CCN(c5ccc(C(F)(F)F)cc5)CC4)cc3o2)CC1` [3-1, tert-butyl 4-(6-(1-(4-(trifluoromethyl)phenyl)piperidin-4-yloxy)benzo[d]oxazole-2-carboxamido)piperidine-1-carboxylate], the EC50 is reported as < 0.1 µM.

same assay, conditions: compounds of Table 5 (Table 10)

`O=C(NC1CCN(Cc2ccc(F)cc2)CC1)c1ccc(OC2CCN(Cc3ccc(Cl)cc3)CC2)c(Cl)c1` [5-66, 3-chloro-4-(1-(4-chlorobenzyl)piperidin-4-yloxy)-N-(1-(4-fluorobenzyl)piperidin-4-yl)benzamide] and `O=C(NC1CCN(Cc2ccc(Cl)cc2)CC1)c1ccc(OC2CCN(Cc3ccc(Cl)cc3)CC2)c(F)c1` [5-72, N-(1-(4-chlorobenzyl)piperidin-4-yl)-4-(1-(4-chlorobenzyl)piperidin-4-yloxy)-3-fluorobenzamide] cannot be ordered by EC50: < 1 µM for the first, < 1 µM for the second.

Compared with `O=C(NC1CCN(Cc2ccccc2)CC1)c1ccc(OC2CCN(c3cccs3)CC2)c(Cl)c1` [5-10, N-(1-benzylpiperidin-4-yl)-3-chloro-4-(1-(thiophen-2-yl)piperidin-4-yloxy)benzamide], `O=C(NC1CCN(Cc2ccccc2)CC1)c1ccc(OC2CCN(Cc3ccc(Cl)cc3)CC2)c(Cl)c1` [5-65, N-(1-benzylpiperidin-4-yl)-3-chloro-4-(1-(4-chlorobenzyl)piperidin-4-yloxy)benzamide] is lower in EC50: 1 to 10 µM for the first, < 1 µM for the second.

`O=C(NC1CCN(Cc2ccc(Cl)cc2)CC1)c1ccc(OC2CCN(Cc3ccc(F)c(F)c3)CC2)c(F)c1` [5-71, N-(1-(4-chlorobenzyl)piperidin-4-yl)-4-(1-(3,4-difluorobenzyl)piperidin-4-yloxy)-3-fluorobenzamide] and `O=C(NC1CCN(Cc2ccccc2)CC1)c1ccc(OC2CCN(Cc3ccc(F)cc3)CC2)c(Cl)c1` [5-19, N-(1-benzylpiperidin-4-yl)-3-chloro-4-(1-(4-fluorobenzyl)piperidin-4-yloxy)benzamide] cannot be ordered by EC50: < 1 µM for the first, < 1 µM for the second.

Compared with `O=C(NC1CCN(c2ccccc2)CC1)c1ccc(OC2CCN(c3ccc(C(F)(F)F)cc3)CC2)c(F)c1` [5-25, 3-fluoro-N-(1-phenylpiperidin-4-yl)-4-(1-(4-(trifluoromethyl)phenyl)piperidin-4-yloxy)benzamide], `N#Cc1ccc(N2CCC(Oc3cccc(C(=O)NC4CCN(Cc5ccccc5)CC4)c3)CC2)cc1` [5-48, N-(1-benzylpiperidin-4-yl)-3-(1-(4-cyanophenyl)piperidin-4-yloxy)benzamide] is lower in EC50: > 100 µM for the first, < 1 µM for the second. The second is the more potent here.

`COc1ccc(CN2CCC(Oc3ccc(C(=O)N4CCN(C(=O)OC(C)(C)C)CC4)cc3)CC2)cc1` [5-96, tert-butyl 4-(4-(1-(4-methoxybenzyl)piperidin-4-yloxy)benzoyl)piperazine-1-carboxylate] and `N#Cc1cccc(CN2CCC(Oc3cccc(C(=O)NC4CCN(Cc5ccccc5)CC4)c3)CC2)c1` [5-89, N-(1-benzylpiperidin-4-yl)-3-(1-(3-cyanobenzyl)piperidin-4-yloxy)benzamide] fall in the same range of EC50: 1 to 10 µM for the first, 1 to 10 µM for the second.

`N#Cc1ccc(CN2CCC(Oc3c(Cl)cc(C(=O)NC4CCN(Cc5ccccc5)CC4)cc3Cl)CC2)cc1` [5-77, N-(1-benzylpiperidin-4-yl)-3,5-dichloro-4-(1-(4-cyanobenzyl)piperidin-4-yloxy)benzamide] was tested, and the EC50 was < 1 µM.
